# What was measured:
# ICAM-1 (CD54) = assay: Endothelial adhesion molecule expression by ELISA, ICAM-1; format: cell-based, human; conditions: HAAE-1, not complexed with LDL
# Method: (§1) Endothelial cell surface adhesion molecule expression was measured by ELISA, using anti-human CD54 (ICAM-1), CD106 (VCAM-1) and CD62E (E-Selectin) antibodies (Leinco Technologies, Inc., St. Louis, Mo.). The ELISA method was modified from previously described procedures.
# (§2) Cells were then incubated with antibodies to VCAM-1, E-selectin, or ICAM-1 diluted 1:400 in PBS containing 5% FCS at 37° C. for 30 min. Wells were washed two times with PBS, then incubated with horseradish peroxidase (HRP)-conjugated goat anti-mouse IgG (Southern Biotechnology Associates, Birmingham, Ala., USA) in PBS/5% FCS at 37° C. for 30 min. The wells were washed four times with PBS, then incubated with H2O2/3,3′,5,5′-tetramethyl-benzidine peroxidase substrate (Pierce Chemical, Rockford, Ill., USA) for 30 min in the dark. The reaction was stopped by adding 25 μl of 8 N H2SO4, and the plates read on a microplate reader, blanking on wells stained with only secondary antibody. Each assay was performed in triplicate and the data are reported as the mean±SEM as a percentage of the expression level of the vehicle. To study the effect of cholesterol ozonation product 5a concentration (5-50 μM) on E-selectin expression, the assay was performed in an identical fashion as described above, with each point being the mean±SEM of at least duplicate measurements.
# neuronal cell lines = assay: Cytotoxicity towards neuronal cell lines (similar procedures); format: cell-based
# VCAM-1 (CD106) = assay: Endothelial adhesion molecule expression by ELISA, VCAM-1; format: cell-based, human; conditions: HAAE-1, not complexed with LDL
# Method: as §1, §2
# J774.1 macrophages = assay: Lipid-loading assay (foam cell formation); format: cell-based, murine; conditions: LDL 100 μg/mL with 4a or 5a (20 μM), 72 h, unactivated J774.1 macrophages
# Method: Lipid-loading assay (foam cell formation). J774.1 macrophages were incubated in ATCC-recommended media containing 10% fetal bovine serum under a controlled atmosphere of 5 or 7% CO2 at 37° C., in 8-well chamber slides. […] At termination, cells were washed twice with PBS (pH 7.4). The cells were then fixed with 6% (v/v) paraformaldehyde in PBS for 30 minutes, rinsed with propylene glycol for 2 minutes and lipids were stained with 5 mg/ml Oil Red 0 for 8 minutes. The cells were counterstained with Harris' hematoxylin for 45 seconds, and background staining was removed with 6% paraformaldehyde followed by washing once in PBS and once in tap water. Cover slips were mounted onto the glass slides using glycerol and the slide preparations were examined by light microscopy. The number of lipid-laden cells was scored out of a total of at least 100 cells counted in a single field in each slide, and expressed as a percentage of total cells. Photographs were taken at 100× magnification.
# [1] = tested on: murine macrophage J774A.1; assay: Modified Boyden chamber migration (chemotaxis) assay; format: cell-based
# Method: Chemotaxis and invasion assays were performed using a modified Boyden chamber migration assay. Zwirner et al. (1998) Eur. J. Immunol. 28: 1570-77; Wilkinson (1988) Methods Enzymol. 162: 38-50. Assays were set up on MultiScreen-MIC plates (Millipore, Billerica, Mass., USA) with polyvinylpyrrolidone-free polycarbonate membranes (5 μm pore size). Cells (murine macrophage J774A.1) were washed and resuspended in serum-free DMEM containing 0.2% BSA at 1×10^6 cells/ml. Fifty microliters of cells were added to the upper wells and 150 μl of chemoattractant in DMEM/0.2% BSA were added to the lower wells of the microchamber. Incubation time was for 4 h at 37° C. in an 8% CO2 atmosphere. After swiping cells off the upper side of the membrane, cells on the lower side were visualized by either staining and phase contrast microscopy, or fluorescence. Cells that had adhered to the membrane were stained using a DiffQuik staining kit (Dade Behring, Newark, Del.). Each experiment was performed in triplicate and the numbers of migrating cells were counted in five fields at ×200. Cells harvested with PBS-EDTA for fluorescent labeling were washed two times with PBS, then resuspended in serum-free medium containing calcein AM (5 μM). Cells were incubated for 30 min (37° C., 5% CO2) with gentle intermittent mixing. Calcein-labeled cells were washed twice, and calcein fluorescence ([…]) was measured using a SPECTRAmax™ GEMINI dual-scanning microplate spectrofluorometer. Fluorescence measurements were compared to a standard curve, generated by dilution of cells in PBS/BSA in 100 μl, dispensed into 96-well plates. Fluorescence was quantified as described above.
# [2] = tested on: Class A scavenger receptor (SR-A); assay: Scavenger receptor expression by flow cytometry, SR-A; format: cell-based, murine; conditions: cultured macrophages, compound in the absence of LDL
# Method: Cell surface CD36 and SR-A were measured by flow cytometry using CD36 (BD Biosciences Pharmingen, San Diego, Calif.) and CD204 (Serotec, Oxford, UK) specific monoclonal antibodies. See Liao et al. (2000) Arterioscler. Thromb. Vasc. Biol. 20: 1968-75; Hu et al. (1996) Blood 87: 2020-28. Murine macrophage J774A.1 cells were serum-starved overnight in media with 0.5% BSA. Cells (1×10^6) treated with cholesterol ozonation products or cholesterol ozonation product complexed with LDL for specified times were then washed twice with PBS. […] Expression of either CD36 or SR-A was determined with CD36 (BD Biosciences Pharmingen, San Diego, Calif.) and CD204 (Serotec, Oxford, U.K.) specific monoclonal antibodies, respectively. After washing off the primary antibody, secondary antibodies were added, cells were washed again, then analyzed on a FACS calibur 2 (Becton Dickinson, Sparks, Md.) flow cytometer and analyzed by CellQuant software. Results were expressed as mean fluorescence intensity±standard error of the mean (SEM) of at least duplicate determinations. Significance was determined using a student two-tail t test, with (*) indicating p<0.05, and (**) indicating p<0.01 versus the control.
# U-937 monocytes cells = assay: Monocyte adhesion to endothelial cell monolayers by fluorescence spectroscopy; format: cell-based; conditions: alone or in complex with LDL
# E-selectin (CD62E) = assay: Endothelial adhesion molecule expression by ELISA, E-selectin; format: cell-based, human; conditions: HAAE-1, not complexed with LDL
# Method: as §1, §2
# [3] = Decrease of extractable 5a in stored plasma; format: in vitro ADME; conditions: stored human plasma, preliminary investigations
# Method: Plasma samples were obtained from patients (n=8) who were scheduled to undergo carotid endarterectomy within 24 h. […] Control plasma samples were obtained from random patients (n=15) attending a general medical clinic and were analyzed 7 days after collection. In a typical procedure, plasma in EDTA (1 ml) was washed with dichloromethane (DCM, 3×1 mL). The combined organic fractions were evaporated in vacuo. The residue was dissolved in methanol (0.9 mL) and a solution of 2,4-dinitrophenyl hydrazine (100 μL, 0.01 M, Lancaster) and 1N HCl in ethanol was added. Nitrogen was bubbled through the solution for 5 min and then the solution was stirred for 2 h. The resultant solution was filtered through a 0.22 μm filter and the filtrate was analyzed by the HPLC assay vide supra.
# CD36 = assay: Scavenger receptor expression by flow cytometry, CD36; format: cell-based, murine
# Method: Cell surface CD36 and SR-A were measured by flow cytometry using CD36 (BD Biosciences Pharmingen, San Diego, Calif.) and CD204 (Serotec, Oxford, UK) specific monoclonal antibodies. See Liao et al. (2000) Arterioscler. Thromb. Vasc. Biol. 20: 1968-75; Hu et al. (1996) Blood 87: 2020-28. Murine macrophage J774A.1 cells were serum-starved overnight in media with 0.5% BSA. Cells (1×10^6) treated with cholesterol ozonation products or cholesterol ozonation product complexed with LDL for specified times were then washed twice with PBS. After harvesting the cells by scraping, they were fixed with 6% paraformaldehyde for 20 min; Cells were then resuspended in PBS containing 2% heat-inactivated FCS, 0.05% NaN3 and appropriate primary antibody, antibody conjugate or isotype control (1:100 dilution) and incubated on ice for 30 min. Expression of either CD36 or SR-A was determined with CD36 (BD Biosciences Pharmingen, San Diego, Calif.) and CD204 (Serotec, Oxford, U.K.) specific monoclonal antibodies, respectively. After washing off the primary antibody, secondary antibodies were added, cells were washed again, then analyzed on a FACS calibur 2 (Becton Dickinson, Sparks, Md.) flow cytometer and analyzed by CellQuant software. Results were expressed as mean fluorescence intensity±standard error of the mean (SEM) of at least duplicate determinations. Significance was determined using a student two-tail t test, with (*) indicating p<0.05, and (**) indicating p<0.01 versus the control.
# LDL / apoB-100 = LDL / apoB-100 (Homo sapiens, UniProt P04114); assay: Circular dichroism of LDL secondary structure; conditions: LDL 100 μg/ml with 10 μM compound, PBS pH 7.4, 37° C., up to 48 h; normal LDL ~40±2%
# Method: Spectra were recorded in the peptidic range (200-260 nm). To increase the signal-to-noise ratio, multiple spectra (three) were averaged for each measurement. The deconvolution of the molar elipticity spectra for each measurement was performed using the CDPro suite of software (by Narasimha Sreerama from Colorado State University) on a Dell PC.
# THP-1 monocytes = assay: Monocyte morphology changes (differentiation into macrophages); format: cell-based, human; conditions: 12.5 or 25 μM, up to 7 days
# Method: THP-1 monocytes in suspension were plated in 8-well chambered slides. […] Media containing appropriate treatment compounds was replaced after 4 days. After 4 days treatment, morphologic changes of the adherent cells were assessed by phase-contrast microscopy and photographed using an Olympus Microfire digital camera.
# leukocyte cell lines = assay: Cytotoxicity to leukocyte cell lines (similar procedures); format: cell-based
# Method: Cytotoxicity assays. WI-L2 human B-lymphocyte line, HAAE-1 human abdominal aortic endothelial line, MH-S murine alveolar macrophage line, and J774A.1 murine tissue macrophage line were obtained from the ATCC. Human aortic endothelial cells (HAEC) and human vascular smooth muscle cells (VSMS) were obtained from Cambrex Bio Science. Jurkat E6-1T-lymphocytes were kindly provided by Dr. J. Kaye (The Scripps Research Institute). Cells were cultured in ATCC-recommended media with 10% fetal calf serum. Cells were incubated in a controlled atmosphere at 37° C., with 5 or 7% CO2. For lactate dehydrogenase (LDH) release assays, adherent cells were harvested either by addition of 0.05% trypsin/EDTA or by scraping. The cells obtained were seeded onto 96-well microtiter plates (25,000 cells/well) and allowed to recover for 24-48 h. Cells were washed gently and media replaced with fresh media containing 5% fetal calf serum. […] Cytotoxicity was then determined by measuring lactate dehydrogenase (LDH) release from cells in culture. […] 100% Cytotoxicity was defined as the maximum amount of LDH released by dead cells as shown by trypan blue exclusion, or the highest amount of LDH detected upon lysis of cells by 0.9% Triton X-100. The IC50 values were determined by comparison of the raw duplicate data for concentration versus cytotoxicity (%) to non-linear regression analysis (Hill plot) using Graphpad v3.0 software for Macintosh.
# LDL / apoB-100, sequence (P04114 28-4563): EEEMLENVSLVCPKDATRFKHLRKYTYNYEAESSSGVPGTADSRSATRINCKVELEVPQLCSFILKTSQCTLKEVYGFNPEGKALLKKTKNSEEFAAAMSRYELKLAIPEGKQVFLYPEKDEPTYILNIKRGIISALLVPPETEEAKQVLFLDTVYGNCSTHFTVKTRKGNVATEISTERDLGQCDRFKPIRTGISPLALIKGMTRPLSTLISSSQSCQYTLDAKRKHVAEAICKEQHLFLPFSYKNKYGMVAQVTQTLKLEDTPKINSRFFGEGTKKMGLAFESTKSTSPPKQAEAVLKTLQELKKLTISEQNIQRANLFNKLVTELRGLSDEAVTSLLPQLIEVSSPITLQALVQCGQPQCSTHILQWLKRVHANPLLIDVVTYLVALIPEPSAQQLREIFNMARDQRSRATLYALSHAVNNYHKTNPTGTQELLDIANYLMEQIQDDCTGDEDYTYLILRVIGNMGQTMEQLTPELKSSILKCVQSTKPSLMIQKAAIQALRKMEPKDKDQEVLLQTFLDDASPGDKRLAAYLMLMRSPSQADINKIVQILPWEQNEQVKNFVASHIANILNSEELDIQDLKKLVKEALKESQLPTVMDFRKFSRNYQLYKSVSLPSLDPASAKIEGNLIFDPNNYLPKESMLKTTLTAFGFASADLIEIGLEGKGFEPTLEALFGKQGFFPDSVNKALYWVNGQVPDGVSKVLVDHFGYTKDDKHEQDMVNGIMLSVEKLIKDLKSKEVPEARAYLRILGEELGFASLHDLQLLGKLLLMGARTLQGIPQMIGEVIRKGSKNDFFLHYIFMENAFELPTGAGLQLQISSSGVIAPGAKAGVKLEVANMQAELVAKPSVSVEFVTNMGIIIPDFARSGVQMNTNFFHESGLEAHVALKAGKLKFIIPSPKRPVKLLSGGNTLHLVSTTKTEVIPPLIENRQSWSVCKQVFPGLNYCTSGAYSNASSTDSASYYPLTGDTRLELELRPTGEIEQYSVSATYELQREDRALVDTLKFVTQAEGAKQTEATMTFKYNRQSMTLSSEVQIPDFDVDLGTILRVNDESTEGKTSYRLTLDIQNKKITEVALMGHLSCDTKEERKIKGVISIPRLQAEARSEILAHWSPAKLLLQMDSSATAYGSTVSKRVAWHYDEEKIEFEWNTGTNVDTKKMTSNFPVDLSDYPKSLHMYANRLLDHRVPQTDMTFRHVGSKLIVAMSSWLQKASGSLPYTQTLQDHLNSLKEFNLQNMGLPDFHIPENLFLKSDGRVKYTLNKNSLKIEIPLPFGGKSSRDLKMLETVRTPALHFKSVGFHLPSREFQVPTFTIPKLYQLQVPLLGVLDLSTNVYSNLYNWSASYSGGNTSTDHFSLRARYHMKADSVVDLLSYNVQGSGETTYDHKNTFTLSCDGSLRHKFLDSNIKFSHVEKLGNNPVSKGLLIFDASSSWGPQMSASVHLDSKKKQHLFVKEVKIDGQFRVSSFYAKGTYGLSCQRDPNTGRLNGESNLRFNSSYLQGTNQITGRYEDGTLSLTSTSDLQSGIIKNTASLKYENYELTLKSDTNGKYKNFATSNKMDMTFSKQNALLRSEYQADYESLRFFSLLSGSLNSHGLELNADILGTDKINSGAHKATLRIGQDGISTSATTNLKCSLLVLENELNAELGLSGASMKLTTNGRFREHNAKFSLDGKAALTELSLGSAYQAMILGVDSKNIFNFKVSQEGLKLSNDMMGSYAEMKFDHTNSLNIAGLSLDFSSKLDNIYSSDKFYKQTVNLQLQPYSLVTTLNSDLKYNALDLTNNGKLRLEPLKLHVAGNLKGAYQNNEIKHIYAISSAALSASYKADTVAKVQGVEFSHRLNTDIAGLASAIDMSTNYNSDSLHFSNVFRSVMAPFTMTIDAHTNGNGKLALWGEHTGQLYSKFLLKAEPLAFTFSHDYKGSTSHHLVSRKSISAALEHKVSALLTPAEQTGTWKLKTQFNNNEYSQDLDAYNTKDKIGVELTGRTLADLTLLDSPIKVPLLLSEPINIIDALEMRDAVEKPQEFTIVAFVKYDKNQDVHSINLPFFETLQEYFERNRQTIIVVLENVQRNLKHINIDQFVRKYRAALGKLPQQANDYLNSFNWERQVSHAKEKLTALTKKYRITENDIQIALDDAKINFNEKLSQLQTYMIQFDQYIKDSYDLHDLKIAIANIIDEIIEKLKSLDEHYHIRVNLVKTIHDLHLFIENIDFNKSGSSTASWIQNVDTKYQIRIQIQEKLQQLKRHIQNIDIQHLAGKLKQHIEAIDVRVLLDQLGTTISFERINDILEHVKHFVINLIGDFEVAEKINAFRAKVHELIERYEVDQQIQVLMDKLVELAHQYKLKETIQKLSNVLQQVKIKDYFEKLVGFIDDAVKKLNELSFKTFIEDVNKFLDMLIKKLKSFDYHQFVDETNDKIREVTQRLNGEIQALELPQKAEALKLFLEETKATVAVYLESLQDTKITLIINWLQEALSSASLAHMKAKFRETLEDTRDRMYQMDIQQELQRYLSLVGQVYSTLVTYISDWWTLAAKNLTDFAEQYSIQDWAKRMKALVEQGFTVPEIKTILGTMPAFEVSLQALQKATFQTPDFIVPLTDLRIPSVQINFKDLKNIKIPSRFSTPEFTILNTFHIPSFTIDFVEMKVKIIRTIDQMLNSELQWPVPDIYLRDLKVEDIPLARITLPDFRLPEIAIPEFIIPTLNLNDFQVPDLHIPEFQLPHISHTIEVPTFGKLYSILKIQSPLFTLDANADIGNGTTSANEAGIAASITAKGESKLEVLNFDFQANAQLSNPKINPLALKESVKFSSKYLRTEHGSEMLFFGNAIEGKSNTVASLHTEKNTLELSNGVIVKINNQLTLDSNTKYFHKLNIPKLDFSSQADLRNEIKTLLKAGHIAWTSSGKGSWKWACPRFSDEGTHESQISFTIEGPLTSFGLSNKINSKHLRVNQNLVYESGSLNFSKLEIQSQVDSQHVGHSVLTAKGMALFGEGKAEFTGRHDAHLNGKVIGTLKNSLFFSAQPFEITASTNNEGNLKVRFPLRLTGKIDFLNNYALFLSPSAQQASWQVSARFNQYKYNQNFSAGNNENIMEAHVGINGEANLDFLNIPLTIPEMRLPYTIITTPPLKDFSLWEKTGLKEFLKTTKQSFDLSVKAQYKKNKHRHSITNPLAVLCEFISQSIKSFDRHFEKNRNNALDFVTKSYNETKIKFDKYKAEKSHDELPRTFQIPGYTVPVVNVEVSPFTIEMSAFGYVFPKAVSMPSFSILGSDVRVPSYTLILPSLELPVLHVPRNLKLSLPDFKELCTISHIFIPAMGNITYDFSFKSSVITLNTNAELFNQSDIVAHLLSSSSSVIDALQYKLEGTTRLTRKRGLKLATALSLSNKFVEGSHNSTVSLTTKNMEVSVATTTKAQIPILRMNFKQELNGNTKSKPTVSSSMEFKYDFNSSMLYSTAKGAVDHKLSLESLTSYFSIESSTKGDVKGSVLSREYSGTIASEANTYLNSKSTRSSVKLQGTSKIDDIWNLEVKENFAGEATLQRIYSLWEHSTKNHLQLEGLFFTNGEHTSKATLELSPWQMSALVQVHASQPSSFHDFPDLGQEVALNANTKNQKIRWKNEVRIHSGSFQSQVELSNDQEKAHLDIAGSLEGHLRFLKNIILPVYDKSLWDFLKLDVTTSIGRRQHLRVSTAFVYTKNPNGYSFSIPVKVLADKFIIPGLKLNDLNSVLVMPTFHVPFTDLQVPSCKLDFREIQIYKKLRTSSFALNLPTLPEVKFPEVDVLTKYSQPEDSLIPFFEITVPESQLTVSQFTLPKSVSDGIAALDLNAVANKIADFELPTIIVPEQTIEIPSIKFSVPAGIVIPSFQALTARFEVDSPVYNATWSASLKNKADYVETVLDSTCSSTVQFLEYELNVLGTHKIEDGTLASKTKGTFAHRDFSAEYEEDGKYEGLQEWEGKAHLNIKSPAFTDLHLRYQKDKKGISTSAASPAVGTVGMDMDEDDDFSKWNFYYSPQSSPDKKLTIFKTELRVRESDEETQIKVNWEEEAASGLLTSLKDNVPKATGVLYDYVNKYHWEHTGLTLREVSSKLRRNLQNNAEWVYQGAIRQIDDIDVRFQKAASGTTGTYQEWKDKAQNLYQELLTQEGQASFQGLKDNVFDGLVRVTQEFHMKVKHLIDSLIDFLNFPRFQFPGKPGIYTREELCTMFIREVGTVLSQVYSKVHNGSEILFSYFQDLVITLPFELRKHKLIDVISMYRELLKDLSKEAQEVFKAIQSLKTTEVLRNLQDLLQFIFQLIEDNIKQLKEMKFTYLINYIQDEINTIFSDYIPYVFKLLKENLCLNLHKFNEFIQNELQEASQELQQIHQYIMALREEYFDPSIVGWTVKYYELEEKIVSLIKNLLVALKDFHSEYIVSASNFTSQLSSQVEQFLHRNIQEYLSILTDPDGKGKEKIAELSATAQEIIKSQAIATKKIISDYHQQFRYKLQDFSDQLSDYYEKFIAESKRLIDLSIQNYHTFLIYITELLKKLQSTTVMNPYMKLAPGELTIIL
compound,measurement,setting,value
"CC(C)CCC[C@@H](C)[C@H]1CCC2C3C(CC[C@@]21C)[C@@]1(C)CC[C@H](O)C[C@@]1(O)[C@@H]3C=O (stereo partly drawn) [5a, 3β-Hydroxy-5β-hydroxy-B-norcholestane-6βcarboxaldehyde]",integrin expression (ICAM-1),ICAM-1 (CD54),no effects
same,cytotoxicity towards neuronal cell lines,neuronal cell lines,cytotoxic
same,integrin expression (VCAM-1),VCAM-1 (CD106),no effects
same,lipid-loading of macrophages / foam cell formation,J774.1 macrophages,began lipid-loading and foam cells began to appear
same,recruitment (migration) of macrophages,"[1]; 0-25 μM, 4 h, P<0.001",dose-dependent recruitment of macrophages
same,migration of macrophages,[1]; compound co-incubated with BSA,macrophage migration still occurs
same,migration of macrophages,[1]; compound complexed with native LDL (100 μg/ml),no significant migration
same,SR-A expression,[2],did not increase expression of either receptor
same,"adhesion of U-937 monocytes to endothelial cell monolayers, above that of LDL alone",U-937 monocytes cells,"neither ozonolysis product 4a nor 5a, alone or in complex with LDL, nor CuOx-LDL significantly increased adhesion"
same,selectin (E-selectin) expression,E-selectin (CD62E),no effects
same,decrease of the amount of 5a that can be extracted from plasma,[3],about 5 % per day
same,CD36 expression,"CD36; J774A.1, 25 μM compound complexed with LDL (100 μg/ml protein), 6 h",little or no effect
same,CD36 expression,"CD36; cultured macrophages, compound in the absence of LDL",did not increase expression of either receptor
same,a helical structure of LDL,LDL / apoB-100,~20±2%
same,"THP-1 monocyte differentiation into macrophages (adherence, morphology)",THP-1 monocytes,"displayed hypertrophy, developed cytoplasmic vacuoles, and formed extended processes, all characteristic of mature macrophages"
"CC(C)CCC[C@@H](C)[C@H]1CCC2C(CC=O)C([C@@]3(C)CCC=CC3=O)CC[C@@]21C (stereo partly shown) [6a, 5-Oxo-5,6-secocholest-3-en-6-al]",cytotoxicity to leukocyte cell lines,leukocyte cell lines,cytotoxic
"CC(C)CCC[C@@H](C)[C@H]1CC[C@H]2[C@@H]3C(=O)C=C4C[C@@H](O)CC[C@]4(C)[C@H]3CC[C@]12C [7-KC, 7-ketocholesterol, reference compound]","THP-1 monocyte differentiation into macrophages (adherence, morphology)",THP-1 monocytes,began to adhere after 4 days
"CC(C)CCC[C@@H](C)[C@H]1CCC2C3C(CC[C@@]21C)[C@@]1(C)CCC=C[C@@]1(O)[C@@H]3C=O (stereo partly drawn) [7a, 5β-Hydroxy-B-norcholest-3-ene-6β-carboxaldehyde]",cytotoxicity to leukocyte cell lines,leukocyte cell lines,cytotoxic
CC(C)CCC[C@@H](C)[C@H]1CCC2C3C(CC[C@@]21C)[C@@]1(C)CCC=C[C@@]1(O)[C@@H]3CO (stereo partly shown) [7c],cytotoxicity to leukocyte cell lines,leukocyte cell lines,cytotoxic
CC(C)CCC[C@@H](C)[C@H]1CCC2[C@H](CC(=O)O)C([C@@]3(C)CC[C@H](O)CC3=O)CC[C@@]21C (stereo partly shown) [10a],cytotoxicity to leukocyte cell lines,leukocyte cell lines,cytotoxic
CC(C)CCC[C@@H](C)[C@H]1CCC2[C@H](CC=O)C([C@@]3(C)CCCCC(=O)O3)CC[C@@]21C (stereo partly shown) [11a],cytotoxicity to leukocyte cell lines,leukocyte cell lines,cytotoxic
"CC(C)CCC[C@@H](C)[C@H]1CCC2C3C(C=O)=C4C=CCC[C@]4(C)C3CC[C@@]21C (stereo partly shown) [12a, B-norcholest-3,5-diene-6-carboxaldehyde]",cytotoxicity to leukocyte cell lines,leukocyte cell lines,cytotoxic
